These results are taken from patent US8592421B2, “Cyclic bioisosters of purine system derivatives and a pharmaceutical composition based thereon” (priority 2003, dated 2013).

Series [1] has as its system thrombocytes. Briefly: ADP-induced aggregation of thrombocytes in vitro (Born method, plasma enriched with thrombocytes). In kind it is cell-based, rabbit. As to conditions: 3-minute incubation, ADP 10^−5 M. On the procedure: The aggregation of thrombocytes was studied by the Born method based on determination of the changes in the optical density of plasma enriched with thrombocytes after its incubation with an aggregation inductor.
Adenozinediphosphoric acid (ADP) was selected as an aggregation inductor, which in fact is an aggregation generator. Use was made of a sample (registration number 885) of the Sigma Diagnostics Company (USA) in final concentration of 10^−5 M.
The experiments were carried out on male rabbits of the “Chinchilla” breed having a mass of 2.7±0.3 kg. 18-24 hours prior to the experiment they were deprived of feed while preserving free access to water.
To obtain plasma enriched with thrombocytes, blood was taken from a cut of a marginal vein of the rabbit ear, the sample was stabilized with 3.8% of sodium citrate solution in a ratio of 9:1 and centrifuged at 200 g (1000 rev/min) for 10 minutes. The top supernatant layer enriched with thrombocytes was transferred by an automatic dropper into a silicone test tube and kept at 37° C. The plasma enriched with thrombocytes contained, on the average, […]. If this content exceeded the specified 3×10^8 blood platelets in 1 liter, this sample was diluted to the necessary concentration with plasma deprived of thrombocytes, which was obtained by centrifuging blood at 650 g during 10 minutes.
The measurements of the optical density of the samples were made on two-channel aggregometer of the “Chronolog” Company (USA). A flask containing 490 mkl of plasma rich with thrombocytes was placed in a device, into which a magnetic agitator covered with Teflon was lowered. The index of maximum amplitude of aggregation (MA) in percent of a fall of the plasma optical density under effect of the aggregation inductor was recorded. The control index MA of plasma was compared with the MA of plasma incubated for 3 minutes with different concentrations of the compounds: from 10^−3 to 10^−7 in vitro experiments or with plasma obtained 15, 30, 60 and 120 minutes after intravenous administration of different doses of the compounds in vivo experiments.
The process of aggregation of thrombocytes was recorded with the help of a computer; on the monitor screen the there were depicted curves reflecting changes of the optical density of the plasma enriched which was taken as a standard 100% compared to the optical density of the non-thrombocyte plasma taken for 0% content of thrombocytes.
Under in vitro conditions a flask was filled with blood plasma enriched with thrombocytes, to which an aggregation inductor ADP was added at a concentration of 10^−5 M, incubated for 3 minutes, and then the compounds according to the invention were introduced directly into the flask. Their action by aggregation of thrombocytes was studied after 3-minute incubation in a wide range of concentrations from 10^−3 to 10^−7 M to minimum concentration of 10^−7M not inducing no effect of suppressing the aggregation.

The subject of series [2] is embryonic fibroblasts of mouse NIH-3T3. The following applies: cells of mice NSO and NIH-3T3, 1-5 mkM, within 15-20 minutes; cited from earlier work.
The test system is the same in series [3]. As to the kind of experiment: Effect on endocellular pHi of fibroblasts (microspectrofluorimetry with FDA / BCECF-AM). Format: cell-based. As to conditions: 10 mkM in medium with serum. How it is done:
The effect of the compounds according to the invention on the endocellular pH, embryonic fibroblasts of mouse NIH-3T3 supplied by the All-Russian Collection of Cellular Cultures of the Institute of Cytology of the Russian Academy of Sciences St. Petersburg was investigated. The cells were grown in the DMEM (Sigma) medium containing 2.2 g/l of sodium bicarbonate with addition of 80.0 mkg/ml of gentamicin and 10.0% embryonal veal serum at a temperature of 37° C. in an atmosphere containing 5.0% of carbon dioxide. For these experiments use was also made of a medium buffer with 5.0 mM of HEPES and 15.0 mM of sodium bicarbonate without serum or with addition of 5.0% serum. The cells were calculated with the help of a hemocytometer. A share of the dead cells was determined by colouring trypan blue.
The measurements of the endocellular pHi were carried out with the help of colorants FDA (Sigma) and BCECF-AM (Calbiochem) on a microspectrofluorimeter by a standard technique (Koshevoy Yu. V., Akatov V. S., Grobova M. E. Microspectrofluorimeter for measuring endocellular pH (micro pH)”. Devices and equipment for studies in the field of physical-and-chemical biology and biotechnology. Pushchino, 1990. P. 8-14).
The cells at a temperature of 37° C. were colored within 5 minutes with 5.0 mkM PDA that before the colouring was prepared from a 10.0 mM solution in acetone by dilution for 30 minutes in a phosphatic buffer to 0.1 mM or 2.0 mkM 1.0 mM solution BCECF-AM in DMSO.
The two-wave method of determining pHi was used based on the ratio intensities of fluorescence of the cells on two wavelengths (Akatov V. S. et all), “Endocellular pH and substrate dependence of proliferation of fibroblasts of Chinese hamster, Cytology, 1991, 33 (7), p. 86-94). The fluorescence was excited by light at λ=490 nm, the emission was recorded simultaneously with two photomultipliers on wavelengths λ=535 nm and λ=570 nm. The K-ratio of the fluorescence on two wavelengths was determined with a deduction of the background fluorescence of the medium near the investigated cells for 40-60 individual cells, which are then averaged taking into account the measurement error. A thermostatically controlled table was used that allowed measurements to be conducted at a temperature of 37° C. An account was taken for the photodynamic damage of the pigmented cells during long-time continuous illumination by excited light. The readings were taken from a section of the preparation exposed to light for not more than 5 minutes.
The calibration curves for determining the absolute pHi values by magnitude K were constructed using the Thomas technique (Thomas J. A., Bushbaum R. N., Zimniak A. w Racker E. “Intracellular pH measurements in Ehrlich ascites tumor cells utilizing spectroscopic probe generated in situ”, Biochemistry, 1979, v. 18, p. 2210-2218), for which case the pigmented cells treated for 5-10 minutes with carboxyacidic nigericyn (Calbiochem) at a concentration of 5-10 mkg/ml was placed in a solution with a high content of potassium—130 mM KCl, 1.0 mM MgCl2, 20.0 mM of HEPES) and with pH values from 6.2 to 7.6. The K values were measured in the media with different pH assuming that pHi of the cells equals to the pH of the medium due to the action of nigericyn, which exchanges potassium ions for protons and at a high content of potassium in the medium counterbalances the pH of the medium and cells. Calibration curves were used based on the fluorescence of same medium with addition of 5.0 mkM of fluorescence or BCECF were used to the control the stability of the of the instrument readings.
The cells were colored by pigment BCECF-AM and pHi was measured 10 minutes after incubation in the medium with an appropriate pH value. […]

Series [4] in a line: Electrochemical activity: polarographic reduction on mercury dripping electrode. In kind it is physicochemical. The following applies: for i: 2.0% sodium chloride background, 9·10^−4 M; for i / −E1/2: 37° C., forward trace, average for the group of compounds; for −E1/2: vs SCE. How it is done:
The study was carried out on a general-purpose polarograph PU-1 with a two-coordinate recorder of the “LKD” type using a three-electrode thermostatically controlled polarographic cell and mercury dripping electrode (MDE) with forced separation of the drop and a dropping period of 0.5 second. A platinum wire was used as an auxiliary electrode and a saturated calomel electrode (SCE) was used as a control electrode.
2.0% solutions of sodium chloride having pH 7.0, 7.2, 7.4, 7.6 were used as a background; the pH values of the background solution were corrected by a solution of sodium hydroxide. The polarographic cell was filled with 5.0 ml of the background solution and for 5 minutes was purged with nitrogen for removing the dissolved oxygen. Then 0.5 ml of solution of the studied substance was added to the background solution, and the polarogram was recorded as a polarographic wave. The concentration of the compounds in the polarographic cell was 9·10^−4 M.
The pH was measured on the pH-meter with an accuracy of +0.05 pH units. The polarographic measurements were carried out at a temperature of 37° C. The recording of polarograms of the investigated materials was effected under conditions of DC current at a scanning rate of the potential 10.0 mV/s with a active scanning stroke from a potential 0 to −0.5 V and sweep retrace from a −0.5 V to 0. The electric-current sensitivity was 5.0 mkA. The scale by the coordinate of the potentials was 50.0 mV/cm. The values of potentials of the half-wave E1/2 of the investigated materials are given with respect to the SCE potential.
The polarogram parameters such as a limiting current ilim and E1/2 were determined by the graphic method. The number of electrons participating in the reaction was calculated on the basis of the analysis of the polarographic wave using the Geirovsky-Ilkovich equation.
The calculation of the number of electrons participating in the reduction reaction was effected using the Geirovsky-Ilkovich equation: […]

Consider `O=c1[nH]n([C@@H]2O[C@H](CO)[C@@H](O)[C@H]2O)c(=O)c2ccccc12.[Na]` [Compound 9, sodium salt of 2-(β-D-ribofuranosile)benzo[d]-3H-pyridazine-1,4-dione], for which the “MA - fall of optical density of plasma, % to the standard” value (from here on “MA - fall … % to the standard”) came to 47.3 ± 2.0 % in series [1] (10^−3 M, control 60.8 ± 3.4); 53.1 ± 1.8 % in series [1] (10^−4 M, control 60.0 ± 2.1); 41.4 ± 3.4 % in series [1] (10^−5 M, control 52.5 ± 2.1). The “MA - drop of optical density, %” value in series [1] (10^−6 M, control 52.8 ± 1.8) is recorded as 49.4 ± 3.2%; in series [1] (10^−7 M, control 51.5 ± 2.1), 51.2 ± 1.7%.
`CC[C@@]1([C@@H]2O[C@@H]([C@H]3O[C@@](O)(CO)[C@H](C)C[C@@H]3C)C[C@@H]2C)CC[C@H]([C@]2(C)CC[C@]3(C[C@H](O)[C@@H](C)[C@@H]([C@@H](C)[C@@H](OC)[C@H](C)C(=O)O)O3)O2)O1` [monensine, reference compound]: the “increase of pHi” value in series [2] was 0.2 unit. The “rise of pHi” value in series [3] was 0.12 pH unit.
Regarding `Nc1cnc2c(=O)[nH][nH]c(=O)c2n1.[Na]` [Compound 28, sodium salt of 2-amino-pyrazine[2,3-d]-6H-pyridazine-5,8-dione], the “MA - fall … % to the standard” value is given as 49.7 ± 2.2 % in series [1] (10^−3 M, control 60.8 ± 3.4); 48.9 ± 2.4 % in series [1] (10^−4 M, control 60.0 ± 2.1); 44.2 ± 2.7 % in series [1] (10^−5 M, control 52.5 ± 2.1). Also, in series [1] (10^−7 M, control 51.5 ± 2.1), the “MA - drop of optical density, %” value came out at 50.4 ± 3.0%.
On to `Nc1ncnc2c(=O)n([C@@H]3O[C@H](CO)[C@@H](O)[C@H]3O)[nH]c(=O)c12.[Na]` [Compound 31, sodium salt of 4-amino-7-(β-D-ribofuranosile)pyrimido[4,5-d]-6H-pyridazine-5,8-dione], for which the “MA - fall … % to the standard” value amounted to 44.9 ± 2.3 % in series [1] (10^−3 M, control 60.8 ± 3.4); 46.7 ± 2.2 % in series [1] (10^−4 M, control 60.0 ± 2.1); 39.9 ± 2.1 % in series [1] (10^−5 M, control 52.5 ± 2.1). Further, the “MA - drop of optical density, %” value was found to be 47.5 ± 1.7 % in series [1] (10^−6 M, control 52.8 ± 1.8) and 49.5 ± 1.2% in series [1] (10^−7 M, control 51.5 ± 2.1).
On to `Nc1cccc2c(=O)n([C@@H]3O[C@H](CO)[C@@H](O)[C@H]3O)[nH]c(=O)c12.[Na]` [Compound 10, sodium salt of 5-amino-2-(CP (β-D-ribofuranosile)benzo[d]-3H-pyridazine-1,4-dione], for which the “MA - fall … % to the standard” value is 46.2 ± 2.7 % in series [1] (10^−3 M, control 60.8 ± 3.4); 48.7 ± 2.4 % in series [1] (10^−4 M, control 60.0 ± 2.1); 40.2 ± 4.0 % in series [1] (10^−5 M, control 52.5 ± 2.1). Besides, the “MA - drop of optical density, %” value in series [1] (10^−6 M, control 52.8 ± 1.8) is 48.4 ± 2.4%; in series [1] (10^−7 M, control 51.5 ± 2.1) it was 49.8 ± 2.0%. In series [4] (calculated with Geirovsky-Ilkovich equation), the “number of electrons participating in the reduction reaction” value is 4.09. For the same molecule, the i is 0.23 ± 0.03 mkA in series [4] (pH 7.0), 0.30 ± 0.01 mkA in series [4] (pH 7.2), 0.29 ± 0.02 mkA in series [4] (pH 7.4) and 0.31 ± 0.02 mkA in series [4] (pH 7.6). Besides, the “−E1/2” value in series [4] (pH 7.0) was found to be 0.092 ± 0.02 V; in series [4] (pH 7.2), 0.09 ± 0.01 V; in series [4] (pH 7.4), 0.092 ± 0.02 V; in series [4] (pH 7.6), 0.09 ± 0.01 V. In addition, the “half-wave potential more positive at reverse stroke compared to forward stroke” value in series [4] (polarograms of reverse stroke) worked out at 30.0 mV.
Turning to `O=c1[nH]n([C@@H]2O[C@H](CO)[C@@H](O)[C@H]2O)c(=O)c2nccc(O)c12.[Na].[Na]` [Compound 4, disodium salt of 4-hydroxy-7-(βD-ribofuranosile)pyrido[2,3-d]-6H-pyridazine-5,8-dione], the “MA - fall … % to the standard” value in series [1] (10^−3 M, control 60.8 ± 3.4) is recorded as 49.2 ± 2.3 %; in series [1] (10^−4 M, control 60.0 ± 2.1) it was 50.2 ± 2.0 %; in series [1] (10^−5 M, control 52.5 ± 2.1) it was 46.2 ± 3.1 %. Moreover, the “MA - drop of optical density, %” value in series [1] (10^−6 M, control 52.8 ± 1.8) turned out to be 50.6 ± 3.1%; in series [1] (10^−7 M, control 51.5 ± 2.1), 49.9 ± 3.4%.
